From patent publication US20240108645A1, “SENESCENCE AND SENESCENCE ASSOCIATED SECRETORY PHENOTYPE” (Metro Biotech NSW Pty Ltd, priority 2013, published 2024)
Entries after “also recorded” stand apart in the source; their conditions may differ.

Columns and labels:
[1] = biological target: NAMPT (Homo sapiens, UniProt P43490); settings: in vitro; Wang et al. (2014) Cell; cited from earlier work
[2] = tested on: senescence associated β-galactosidase; assay: Senescence associated β-galactosidase staining of epididymal adipose tissue whole mounts; assay type: in vivo, C57BL6 mice
Procedure: 18 month old C57BL6 mice were treated with or without […] intraperitoneal apigenin for 7 days. Epidydimal adipose tissue whole mounts were obtained from the mice and stained for expression of senescence associated β-galactosidase according to the chromogenic protocol of Debacq-Chainiaux F et al., Protocols to Detect Senescence-associated beta-galactosidase (SA-betagal) activity, a biomarker of senescent cells in culture and in vivo, Nature Protocols 2009; 4(12): 1798-1806. Cells that have undergone cellular senescence express β-galactosidase and stain blue (which can be seen as a darker grey in FIG. 1A).

[3] = biological target: T1, CD38 (Homo sapiens, UniProt P28907); settings: in vitro; Esande et al. (2013) Diabetes; cited from earlier work
T1 sequence (P28907 1-300): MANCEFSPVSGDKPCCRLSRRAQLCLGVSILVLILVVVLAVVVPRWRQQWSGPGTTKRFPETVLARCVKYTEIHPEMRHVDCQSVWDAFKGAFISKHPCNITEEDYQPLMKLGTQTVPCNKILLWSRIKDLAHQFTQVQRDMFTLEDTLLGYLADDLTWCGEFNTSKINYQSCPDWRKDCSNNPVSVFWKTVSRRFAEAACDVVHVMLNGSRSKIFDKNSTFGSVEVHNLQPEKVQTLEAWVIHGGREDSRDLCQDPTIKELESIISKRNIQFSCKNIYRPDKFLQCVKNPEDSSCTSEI

[4] = Body weight after whole body γ-irradiation; assay type: in vivo, female C57BL6 mice; settings: 500cGy whole body γ-irradiation; apigenin 500 mg/kg feed; 20 days post-irradiation
Procedure: In order to assess the affects of an NAD^+ agonist on the effects of radiation, female C57BL6 (3-4 months old) were exposed to a single dose (500cGy) of whole body γ-irradiation or no irradiation (control). Mice were then maintained on chow diet with or without the addition of the NAD^+ raising compound apigenin to diet (500 mg/kg feed). The weight of the mice was determined at various time points for 20 days post-irradiation.

[5] = tested on: C2C12 myoblasts; assay: SA-β-Gal activity in C2C12 myoblasts by flow cytometry with C12FDG; assay type: cell-based
Procedure: To determine the ability of NAD^+ agonists to prevent or reduce senescence associated with treatment with corticoids, C2C12 myoblasts were assayed for SA-β-Gal activity following contact with vehicle, NMN, apigenin, dexamethasone, dexamethasone and NMN, and dexamethasone and apigenin. SA-β-Gal activity was determined using the fluorogenic substrate, C12FDG, by flow cytometry (protocol of Debacq-Chainiaux et al. Nature Protocols 2009). FIG. 7A: […] FIGS. 7B and 7C: […] SA-β-Gal activity was decreased with NMN and/or apigenin. All data are presented as the mean value. * p<0.05, **** p<0.0001, using two-way ANOVA multiple comparisons test.

[6] = Body weight after doxorubicin; assay type: in vivo, male C57BL6 mice; settings: doxorubicin 10 mg/kg i.p. + apigenin 500 mg/kg of diet from 8 days before
Procedure: Vehicle control: 10% DMSO in PBS administered intraperitoneally; • 2. Apigenin: administered in diet at 500 mg/kg of diet, in addition to vehicle control administered i.p.; • 3. […] Apigenin administered in diet of 500 mg/kg of diet, and doxorubicin administered at 10 mg/kg body weight i.p. Apigenin was administered 8 days prior to administration of a single dose of doxorubicin. Body weight was assessed during the course of the experiment as a read-out of general health and malaise, the results of which are shown in FIG. 11.

[7] = tested on: C2C12 myoblasts; assay: SA-β-Gal staining of C2C12 myoblasts incubated with various agents; assay type: cell-based
Procedure: The ability of NAD^+ agonists to reduce senescence associated with various agents was tested by inclubating C2C12 myoblasts with various agents in the presence or absence of NMN or apigenin, and the cells subsequent stained as mentioned above for SA-β-Gal activity. The following agents were tested: [table]

[8] = tested on: p16^INK4A; assay: Doxorubicin-induced senescence in p16^LUC mice, bioluminescence/CT imaging; assay type: in vivo; settings: doxorubicin 1 mg/kg i.p. + apigenin 500 mg/kg of food from 4 days before; vs doxorubicin alone
Procedure: Vehicle control: 10% DMSO in PBS administered intraperitoneally; • 2. Apigenin: administered in diet at 500 mg/kg of food in addition to vehicle control administered i.p.; • 3. […] Apigenin administered in chow diet at 500 mg/kg of food, and doxorubicin administered at 1 mg/kg body weight i.p. Apigenin was administered 4 days prior to administration of doxorubicin. The animals were subjected to bioluminescence/CT imaging (Spectrum-CT instrument, PerkinElmer) as a readout for senescence 24 hours after treatment was completed. Areas of luminescence are shown as lightened areas in FIG. 5 and are indicated by an arrow.

[9] = tested on: 3T3-L1 adipocytes; assay: SA-β-gal chromogenic staining of dexamethasone treated 3T3-L1 adipocytes; assay type: cell-based; settings: 5 days; dexamethasone 1, 0.5, 0.1 or 0.01 mg/ml; 1 mM NMN, 25 mM apigenin
Procedure: To further investigate the effects of NAD^+ agonists on dexamethasone induced senescence, 3T3-L1 adipocytes were treated for 5 days with ethanol (control), or 1 mg/ml, 0.5 mg/ml, 0.1 mg/ml or 0.01 mg/ml of dexamethasone in combination with either DMSA, 1 mM NMN, 25 mM apigenin, or 1 mM NMN and 25 mM apigenin and subjected to senescence associated beta-galactosidase staining according to the chromogenic protocol of Debacq-Chainiaux F et al Nature Protocols 2009.

[10] = tested on: senescence associated secretory proteins and cell cycle markers (mRNA); assay: Quantitative RTPCR of senescence marker mRNA in epidymal adipose tissue; assay type: in vivo, C57BL6 mice; settings: chow or high fat feed supplemented with 500 mg/kg apigenin
Procedure: C57BL6 mice were fed chow, chow supplemented with 500 mg/kg apigenin, high fat feed or high fat feed supplemented with 500 mg/kg apigenin for 6 months. At 6 months, mRNA expression levels of senescence associated secretory proteins was determined in epidymal adipose tissue using quantitative RTPCR. At 12 months, mRNA expression levels of cell cycle markers was determined in epidymal adipose tissue using quantitative RTPCR.

[11] = tested on: 3T3-L1 adipocytes; assay: Intracellular lipid content (oil red o) of 3T3-L1 adipocytes treated with antiretroviral agents; settings: apigenin 25 μM; cells treated 24 hr with 30 μM AZT, Efavirenz, Lopinavir, Ritonavir
Procedure: The ability of NAD^+ agonists to reduce or prevent lipodystrophy associated with anti-retroviral compounds was assessed. The ability of NMN to prevent or reduce lipodystrophy was tested by determining the lipid content of 3T3-L1 adipocytes treated with a vehicle, or the antiretroviral agent stavudine, either alone or in combination with NMN.
3T3-L1 adipocytes were treated for 24 hr with the HIV antiretroviral compound stavudine (10 nM) in the presence or absence of NMN (1 mM). Intracellular lipid content was assessed using oil red o staining, which was quantified by reading absorbance at 544 nm. Error bars: SD.
In order to further test the ability of NAD^+ agonists to reduce lipodystrophy associated with antiretroviral agents, 3T3-L1 adipocytes were treated for 24 hr with various antiretroviral compounds (30 μM) in the presence or absence of NMN (1 mM) or apigenin (25 μM). Intracellular lipid content was assessed using oil red o staining, which was quantified by reading absorbance at 544 nm.

Chain of NAMPT (P43490 whole entry, species assumed): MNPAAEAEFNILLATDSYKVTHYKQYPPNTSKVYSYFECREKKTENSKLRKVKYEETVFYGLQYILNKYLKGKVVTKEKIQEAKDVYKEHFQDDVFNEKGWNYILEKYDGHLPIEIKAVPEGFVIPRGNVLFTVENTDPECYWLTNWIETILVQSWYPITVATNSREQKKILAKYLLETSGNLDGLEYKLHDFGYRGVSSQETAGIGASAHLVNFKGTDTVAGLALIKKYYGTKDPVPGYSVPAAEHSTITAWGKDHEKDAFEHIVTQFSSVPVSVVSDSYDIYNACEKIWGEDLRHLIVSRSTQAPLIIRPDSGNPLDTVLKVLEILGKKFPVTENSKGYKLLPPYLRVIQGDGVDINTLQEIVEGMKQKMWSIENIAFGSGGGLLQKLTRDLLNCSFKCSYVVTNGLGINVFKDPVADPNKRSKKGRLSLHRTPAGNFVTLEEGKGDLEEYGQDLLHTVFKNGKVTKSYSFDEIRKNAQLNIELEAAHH

OC(CNc1ccccc1)Cn1c2ccc(Br)cc2c2cc(Br)ccc21 (stereo not drawn) [P7C3]
activity of NAMPT [1]: enhances activity of NAMPT in vitro

O=c1cc(-c2ccc(O)cc2)oc2cc(O)cc(O)c12 [apigenin, 5,7-dihydroxy-2-(4-hydroxyphenyl)-4H-1-benzopyran-4-one]
SA-β-gal staining of adipose tissue (FIG. 1B) ([2]; 3 and 18 month old mice fed chow or chow supplemented with apigenin): little or no staining
senescence associated β-galactosidase staining of adipose tissue (FIG. 1A) ([2]; 18 month old mice, 100 mg/day intraperitoneal apigenin for 7 days / chow supplemented daily with 100 mg/kg apigenin, vs chow fed control, 100 mg/kg): less compared to chow fed mice; also recorded: significantly less senescence-associated β-galactosidase expression
inhibition of CD38 activity [3]: inhibitors of CD38 activity in vitro
body weight after irradiation [4]: prevented this weight loss
SA-β-Gal activity (FIG. 7B) ([5]; 72 hours, dexamethasone sodium phosphate 250 nM or PBS, NMN 1 mM or apigenin 25 uM): decreased
SA-β-Gal activity (FIG. 7C) ([5]; 96 hours, dexamethasone sodium phosphate 250 nM or PBS, NMN 1 mM or apigenin 25 uM): decreased
percentage of cells which exhibited SA-β-Gal activity following treatment with dexamethasone ([5]; summary of FIGS. 7A-7C): reduced the percentage of cells which exhibited SA-β-Gal activity
body weight [6]: rescue in body weight to a degree similar to non-doxorubicin treated animals
extent of senescence (proportion of cells stained blue, SA-β-Gal activity) ([7]; agents of the table of b212 with vs without apigenin or NMN): reduce the extent of senescence induced by the agents tested
extent to which the cells undergo senescence ([7]; co-administration with AZT, 3TC, zalcitabine, efavirenze, lopinavir, ritonavir, nevirapine, tipranavir, tenofovir, invirase vs agent alone): reduces the extent to which the cells undergo senescence
extent to which the cells undergo senescence ([7]; co-administration with PPARγ agonist rosiglitazone vs rosiglitazone alone): reduces the extent to which the cells undergo senescence
extent to which the cells undergo senescence ([7]; co-administration with antiprotozoal agent quinacrine vs quinacrine alone): reduces the extent to which the cells undergo senescence
extent to which the cells undergo senescence ([7]; co-administration with each of the chemotherapeutic agents listed in b109 vs agent alone): reduces the extent to which the cells undergo senescence
extent to which the cells undergo senescence ([7]; co-administration with xanthine oxidase inhibitor allopurinol vs allopurinol alone): reduces the extent to which the cells undergo senescence
extent to which the cells undergo senescence ([7]; co-administration with zolendronate vs zolendronate alone): reduces the extent to which the cells undergo senescence
p16^INK4A induction (bioluminescence) [8]: little or no signs of p16^INK4A induction
SA-β-gal staining (blue cells), dexamethasone induced senescence [9]: reduce or prevent senescence induced by dexamethasone
mRNA expression of senescence associated secretory proteins (FIG. 2) ([10]; 6 months): significant reduction in expression of senescence markers
mRNA expression of cell cycle markers (FIG. 3) ([10]; 12 months): significant reduction in expression of senescence markers
lipodystrophy (intracellular lipid content, oil red o) [11]: reduced lipodystrophy
